Experimental findings from the supplement of paper PMC10307832 are described below.

What all share (assay): relative viability (nuclei count vs DMSO), 5 days (fraction); higher = more cells survive
One experiment deals with SW 900. In short, it runs like this: (§1)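 A single step with final 0.05% Triton X-100, 1% formaldehyde and 1 ug/ml Hoechst fixed the cells and stained nuclei 5 days after treatment. Lung cancer cell lines in 1536-well plates had been treated by pin tool the day after seeding with one drug alone or a fixed anchor-drug dose plus five library-drug doses (not always all listed) in √10 steps, and nuclei were counted on 4× images. Relative viability is the ratio of nuclei in treated wells to nuclei in vehicle wells, taken as the median of duplicate plates.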

The test system of another experiment is NCI-H1648. In short, it runs like this: as §1
The next experiment concerns NCI-H2342. In short, it runs like this: as §1
The next experiment deals with NCI-H522. The essentials:
as §1

The test system of a further experiment is NCI-H1563. In short, it runs like this: as §1

For `Cc1cnc(-c2cnc(NCCNc3ccc(C#N)cn3)nc2-c2ccc(Cl)cc2Cl)[nH]1` + CC(=O)Nc1cccc(-n2c(=O)n(C3CC3)c(=O)c3c(Nc4ccc(I)cc4F)n(C)c(=O)c(C)c32)c1 [Trametinib] (partner 0.02 µM), the relative viability is 0.905 in the experiment on SW 900 (first compound 0.08 µM); 0.629 in the experiment with SW 900 (first compound 0.253 µM); 0.772 with SW 900 (first compound 0.8 µM); 0.765 with SW 900 (first compound 2.53 µM); 0.5 in the experiment with NCI-H1648 (first compound 0.08 µM); 0.381 in the experiment on NCI-H1648 (first compound 0.253 µM). In addition, the relative viability is 0.476 in the experiment with NCI-H1648 (first compound 0.8 µM); 0.456 in the experiment with NCI-H1648 (first compound 2.53 µM); 0.923 in the experiment with NCI-H2342 (first compound 0.08 µM); 0.653 with NCI-H2342 (first compound 0.253 µM); 0.801 in the experiment on NCI-H2342 (first compound 0.8 µM); 0.697 with NCI-H2342 (first compound 2.53 µM). Moreover, the relative viability in the experiment with NCI-H522 (first compound 0.08 µM) was 0.909; in the experiment with NCI-H522 (first compound 0.253 µM), 0.719; with NCI-H522 (first compound 0.8 µM) it was 0.799; in the experiment with NCI-H522 (first compound 2.53 µM), 0.722.

With `Cc1cnc(-c2cnc(NCCNc3ccc(C#N)cn3)nc2-c2ccc(Cl)cc2Cl)[nH]1` + CC(=O)c1c(C)c2cnc(Nc3ccc(N4CCNCC4)cn3)nc2n(C2CCCC2)c1=O [Palbociclib] (partner 0.5 µM), the relative viability with SW 900 (first compound 0.08 µM) is 0.565; with SW 900 (first compound 0.253 µM), 0.513; with SW 900 (first compound 0.8 µM), 0.528; in the experiment with SW 900 (first compound 2.53 µM), 0.515; with NCI-H1648 (first compound 0.08 µM), 0.267; with NCI-H1648 (first compound 0.253 µM) it was 0.243. For the same compound, the relative viability in the experiment on NCI-H1648 (first compound 0.8 µM) came out at 0.265; in the experiment with NCI-H1648 (first compound 2.53 µM) it was 0.265; in the experiment on NCI-H2342 (first compound 0.08 µM) it was 0.522; in the experiment on NCI-H2342 (first compound 0.253 µM), 0.516; in the experiment on NCI-H2342 (first compound 0.8 µM), 0.557; with NCI-H2342 (first compound 2.53 µM) it was 0.463. Moreover, the relative viability with NCI-H522 (first compound 0.08 µM) came to 1.15; in the experiment with NCI-H522 (first compound 0.253 µM) it was 0.927; in the experiment on NCI-H522 (first compound 0.8 µM), 0.974; in the experiment on NCI-H522 (first compound 2.53 µM) it was 0.862.

Turning to `Cc1cnc(-c2cnc(NCCNc3ccc(C#N)cn3)nc2-c2ccc(Cl)cc2Cl)[nH]1` + Nc1nc2[nH]cc(CCc3ccc(C(=O)N[C@@H](CCC(=O)O)C(=O)O)cc3)c2c(=O)[nH]1 [Pemetrexed] (partner 0.2 µM), the relative viability in the experiment on NCI-H1563 (first compound 0.08 µM) was 0.746; in the experiment on NCI-H1563 (first compound 0.253 µM) it was 0.805; with NCI-H1563 (first compound 0.8 µM) it was 0.768; in the experiment with NCI-H1563 (first compound 2.53 µM), 0.722; with SW 900 (first compound 0.08 µM), 0.501; in the experiment with SW 900 (first compound 0.253 µM), 0.487. Moreover, the relative viability was 0.478 in the experiment on SW 900 (first compound 0.8 µM); 0.438 in the experiment with SW 900 (first compound 2.53 µM); 0.545 in the experiment with NCI-H1648 (first compound 0.08 µM); 0.723 in the experiment with NCI-H1648 (first compound 0.253 µM); 0.703 in the experiment with NCI-H1648 (first compound 0.8 µM); 0.653 with NCI-H1648 (first compound 2.53 µM). The relative viability in the experiment with NCI-H2342 (first compound 0.08 µM) worked out at 0.823; in the experiment on NCI-H2342 (first compound 0.253 µM) it was 0.633; with NCI-H2342 (first compound 0.8 µM) it was 0.721; in the experiment with NCI-H2342 (first compound 2.53 µM), 0.736; in the experiment with NCI-H522 (first compound 0.08 µM), 1.08; with NCI-H522 (first compound 0.253 µM), 1.03. In addition, the figures for the relative viability with NCI-H522 (first compound 0.8 µM) and in the experiment with NCI-H522 (first compound 2.53 µM) were 0.97 and 1.07, respectively.

In the case of `O=C(O)CCCCC(CCSCc1ccccc1)SCc1ccccc1` (stereo not given) [CPI-613] + CC(=O)Nc1cccc(-n2c(=O)n(C3CC3)c(=O)c3c(Nc4ccc(I)cc4F)n(C)c(=O)c(C)c32)c1 [Trametinib] (partner 0.02 µM), the relative viability in the experiment with SW 900 (first compound 5 µM) was 0.701; in the experiment with SW 900 (first compound 50 µM), 0.706; in the experiment on SW 900 (first compound 158.11 µM), 0.359; in the experiment with SW 900 (first compound 500 µM), 0.0323; with NCI-H1648 (first compound 5 µM), 0.454; in the experiment on NCI-H1648 (first compound 15.81 µM), 0.376. The relative viability in the experiment on NCI-H1648 (first compound 50 µM) came to 0.533; with NCI-H1648 (first compound 158.11 µM) it was 0.218; in the experiment with NCI-H1648 (first compound 500 µM) it was 0.14; in the experiment with NCI-H2342 (first compound 5 µM), 0.747; in the experiment on NCI-H2342 (first compound 15.81 µM), 0.888; in the experiment on NCI-H2342 (first compound 50 µM), 0.977. The relative viability in the experiment on NCI-H2342 (first compound 158.11 µM) was determined as 0.786; with NCI-H2342 (first compound 500 µM), 0.955; with NCI-H522 (first compound 5 µM), 0.707; with NCI-H522 (first compound 15.81 µM) it was 0.739; in the experiment with NCI-H522 (first compound 50 µM), 0.751; with NCI-H522 (first compound 158.11 µM), 0.651. Besides, the relative viability with NCI-H522 (first compound 500 µM) is 0.284.

On to `O=C(O)CCCCC(CCSCc1ccccc1)SCc1ccccc1` (stereo not given) [CPI-613] + CC(=O)c1c(C)c2cnc(Nc3ccc(N4CCNCC4)cn3)nc2n(C2CCCC2)c1=O [Palbociclib] (partner 0.5 µM), for which the relative viability with SW 900 (first compound 5 µM) turned out to be 0.57; with SW 900 (first compound 50 µM), 0.557; in the experiment on SW 900 (first compound 158.11 µM) it was 0.208; in the experiment on SW 900 (first compound 500 µM), 0.0276; with NCI-H1648 (first compound 5 µM), 0.285; with NCI-H1648 (first compound 15.81 µM), 0.302. Further, the relative viability in the experiment with NCI-H1648 (first compound 50 µM) was 0.299; in the experiment on NCI-H1648 (first compound 158.11 µM) it was 0.192; in the experiment with NCI-H1648 (first compound 500 µM) it was 0.128; in the experiment with NCI-H2342 (first compound 5 µM) it was 0.497; with NCI-H2342 (first compound 15.81 µM) it was 0.536; in the experiment with NCI-H2342 (first compound 50 µM), 0.492. Further, the relative viability stood at 0.52 in the experiment on NCI-H2342 (first compound 158.11 µM); 0.588 with NCI-H2342 (first compound 500 µM); 1.03 with NCI-H522 (first compound 5 µM); 1.13 in the experiment on NCI-H522 (first compound 15.81 µM); 1.08 with NCI-H522 (first compound 50 µM); 0.708 in the experiment on NCI-H522 (first compound 158.11 µM). This compound returned a relative viability with NCI-H522 (first compound 500 µM) of 0.301.
